Assay results: patent publication US6733759B2, “Nutrient formulation and process for enhancing the health, livability, cumulative weight gain or feed efficiency in poultry and other animals” (Novus International, Inc., priority 1995, dated 2004)

Test system: IgA in the bile
Assay: IgA in bile by indirect ELISA in birds given 1027 with or without adjuvants
Type: in vivo, chickens
Conditions: day 21 after oral vaccine and adjuvant in 1027
Excerpt: IgA is the antibody class associated with resistance to diseases which attack the intestinal mucosa, such as coccidiosis.
The data presented in FIG. 5 were obtained by indirect enzyme linked immunosorbent assay (ELISA) using monoclonal mouse anti-chicken IgA as the first antibody, polyclonal goat anti-chicken IgA as the second antibody, and biotin-conjugated anti-goat immunoglobulin for detection. Samples were read on an automated ELISA plate reader, and are corrected for differences in dilution.

c1ccc([C@H]2CN3CCSC3=N2)cc1 [levamisole]
IgA in the bile vs 1027 alone: higher day 21 biliary IgA levels
